How the values were obtained:
Assay in all cases: KINOMEscan
[1] = target: T1, EPHA4 (Homo sapiens, UniProt P54764); type: binding; conditions: read-out: % Ctrl
T1 construct: purchased DiscoveRx KINOMEscan

[2] = target: T2, LATS1 (Homo sapiens, UniProt O95835); type: binding; conditions: read-out: % Ctrl
T2 construct: purchased DiscoveRx KINOMEscan

[3] = target: T3, NEK4 (Homo sapiens, UniProt P51957); type: binding; conditions: read-out: % Ctrl
T3 construct: purchased DiscoveRx KINOMEscan

[4] = target: T4, ERBB3 (Homo sapiens, UniProt P21860); type: binding; conditions: read-out: % Ctrl
T4 construct: purchased DiscoveRx KINOMEscan

[5] = target: T5, TAOK2 (Homo sapiens, UniProt Q9UL54); type: binding; conditions: read-out: % Ctrl
T5 construct: purchased DiscoveRx KINOMEscan

[6] = target: T6, MKNK2 (Homo sapiens, UniProt Q9HBH9); type: binding; conditions: read-out: % Ctrl
T6 construct: purchased DiscoveRx KINOMEscan

[7] = target: T7, PIM2 (Homo sapiens, UniProt Q9P1W9); type: binding; conditions: read-out: % Ctrl
T7 construct: purchased DiscoveRx KINOMEscan

[8] = target: T8, PKAC-beta (Homo sapiens, UniProt P22694); type: binding; conditions: read-out: % Ctrl
T8 construct: purchased DiscoveRx KINOMEscan

[9] = target: T9, CAMKK1 (Homo sapiens, UniProt Q8N5S9); type: binding; conditions: read-out: % Ctrl
T9 construct: purchased DiscoveRx KINOMEscan

[10] = target: T10, IRAK4 (Homo sapiens, UniProt Q9NWZ3); type: binding; conditions: read-out: % Ctrl
T10 construct: purchased DiscoveRx KINOMEscan

[11] = target: T11, IKK-epsilon (Homo sapiens, UniProt Q14164); type: binding; conditions: read-out: % Ctrl
T11 construct: purchased DiscoveRx KINOMEscan

[12] = target: T12, CDK7 (Homo sapiens, UniProt P50613); type: binding; conditions: read-out: % Ctrl
T12 construct: purchased DiscoveRx KINOMEscan

[13] = target: T13, KIT(A829P) (Homo sapiens, UniProt P10721, A829P); type: binding; conditions: read-out: % Ctrl
T13 construct: purchased DiscoveRx KINOMEscan

[14] = target: T14, CASK (Homo sapiens, UniProt O14936); type: binding; conditions: read-out: % Ctrl
T14 construct: purchased DiscoveRx KINOMEscan

[15] = target: T15, NIM1 (Homo sapiens, UniProt Q8IY84); type: binding; conditions: read-out: % Ctrl
T15 construct: purchased DiscoveRx KINOMEscan

[16] = target: T16, HIPK1 (Homo sapiens, UniProt Q86Z02); type: binding; conditions: read-out: % Ctrl
T16 construct: purchased DiscoveRx KINOMEscan

[17] = target: T17, CDK9 (Homo sapiens, UniProt P50750); type: binding; conditions: read-out: % Ctrl
T17 construct: purchased DiscoveRx KINOMEscan

[18] = target: T18, DAPK2 (Homo sapiens, UniProt Q9UIK4); type: binding; conditions: read-out: % Ctrl
T18 construct: purchased DiscoveRx KINOMEscan

[19] = target: T19, SRC (Homo sapiens, UniProt P12931); type: binding; conditions: read-out: % Ctrl
T19 construct: purchased DiscoveRx KINOMEscan

[20] = target: T20, PIP5K2C (Homo sapiens, UniProt Q8TBX8); type: binding; conditions: read-out: % Ctrl
T20 construct: purchased DiscoveRx KINOMEscan

[21] = target: T21, p38-alpha (Homo sapiens, UniProt Q16539); type: binding; conditions: read-out: % Ctrl
T21 construct: purchased DiscoveRx KINOMEscan

[22] = target: T22, PRKCI (Homo sapiens, UniProt P41743); type: binding; conditions: read-out: % Ctrl
T22 construct: purchased DiscoveRx KINOMEscan

[23] = target: T23, TIE2 (Homo sapiens, UniProt Q02763); type: binding; conditions: read-out: % Ctrl
T23 construct: purchased DiscoveRx KINOMEscan

[24] = target: T24, RSK4(KD1-N-t.) (Homo sapiens, UniProt Q9UK32); type: binding; conditions: read-out: % Ctrl
T24 construct: RSK4(KD1-N-t.); purchased DiscoveRx KINOMEscan

[25] = target: T25, NIK (Homo sapiens, UniProt Q99558); type: binding; conditions: read-out: % Ctrl
T25 construct: purchased DiscoveRx KINOMEscan

[26] = target: T26, TNK1 (Homo sapiens, UniProt Q13470); type: binding; conditions: read-out: % Ctrl
T26 construct: purchased DiscoveRx KINOMEscan

[27] = target: T27, TLK1 (Homo sapiens, UniProt Q9UKI8); type: binding; conditions: read-out: % Ctrl
T27 construct: purchased DiscoveRx KINOMEscan

[28] = target: T28, SIK (Homo sapiens, UniProt P57059); type: binding; conditions: read-out: % Ctrl
T28 construct: purchased DiscoveRx KINOMEscan

[29] = target: T29, FLT4 (Homo sapiens, UniProt P35916); type: binding; conditions: read-out: % Ctrl
T29 construct: purchased DiscoveRx KINOMEscan

[30] = target: T30, DCAMKL3 (Homo sapiens, UniProt Q9C098); type: binding; conditions: read-out: % Ctrl
T30 construct: purchased DiscoveRx KINOMEscan

[31] = target: T31, YSK4 (Homo sapiens, UniProt Q56UN5); type: binding; conditions: read-out: % Ctrl
T31 construct: purchased DiscoveRx KINOMEscan

[32] = target: T32, SNRK (Homo sapiens, UniProt Q9NRH2); type: binding; conditions: read-out: % Ctrl
T32 construct: purchased DiscoveRx KINOMEscan

[33] = target: T33, MEK1 (Homo sapiens, UniProt Q02750); type: binding; conditions: read-out: % Ctrl
T33 construct: purchased DiscoveRx KINOMEscan

[34] = target: T34, ACVR2A (Homo sapiens, UniProt P27037); type: binding; conditions: read-out: % Ctrl
T34 construct: purchased DiscoveRx KINOMEscan

[35] = target: T35, NEK1 (Homo sapiens, UniProt Q96PY6); type: binding; conditions: read-out: % Ctrl
T35 construct: purchased DiscoveRx KINOMEscan

[36] = target: T36, FYN (Homo sapiens, UniProt P06241); type: binding; conditions: read-out: % Ctrl
T36 construct: purchased DiscoveRx KINOMEscan

[37] = target: T37, ERK4 (Homo sapiens, UniProt P31152); type: binding; conditions: read-out: % Ctrl
T37 construct: purchased DiscoveRx KINOMEscan

[38] = target: T38, PIK3CA(Q546K) (Homo sapiens, UniProt P42336, Q546K); type: binding; conditions: read-out: % Ctrl
T38 construct: purchased DiscoveRx KINOMEscan

[39] = target: T39, MLK1 (Homo sapiens, UniProt P80192); type: binding; conditions: read-out: % Ctrl
T39 construct: purchased DiscoveRx KINOMEscan

[40] = target: T40, MYO3B (Homo sapiens, UniProt Q8WXR4); type: binding; conditions: read-out: % Ctrl
T40 construct: purchased DiscoveRx KINOMEscan

[41] = target: T41, VEGFR2 (Homo sapiens, UniProt P35968); type: binding; conditions: read-out: % Ctrl
T41 construct: purchased DiscoveRx KINOMEscan

[42] = system: FLT3(ITD); type: binding, human; conditions: 1 µM
[43] = target: T42, BMX (Homo sapiens, UniProt P51813); type: binding; conditions: read-out: % Ctrl
T42 construct: purchased DiscoveRx KINOMEscan

[44] = target: T43, AMPK-alpha1 (Homo sapiens, UniProt Q13131); type: binding; conditions: read-out: % Ctrl
T43 construct: purchased DiscoveRx KINOMEscan

[45] = target: T44, TGFBR2 (Homo sapiens, UniProt P37173); type: binding; conditions: read-out: % Ctrl
T44 construct: purchased DiscoveRx KINOMEscan
T44 sequence (P37173 23-567): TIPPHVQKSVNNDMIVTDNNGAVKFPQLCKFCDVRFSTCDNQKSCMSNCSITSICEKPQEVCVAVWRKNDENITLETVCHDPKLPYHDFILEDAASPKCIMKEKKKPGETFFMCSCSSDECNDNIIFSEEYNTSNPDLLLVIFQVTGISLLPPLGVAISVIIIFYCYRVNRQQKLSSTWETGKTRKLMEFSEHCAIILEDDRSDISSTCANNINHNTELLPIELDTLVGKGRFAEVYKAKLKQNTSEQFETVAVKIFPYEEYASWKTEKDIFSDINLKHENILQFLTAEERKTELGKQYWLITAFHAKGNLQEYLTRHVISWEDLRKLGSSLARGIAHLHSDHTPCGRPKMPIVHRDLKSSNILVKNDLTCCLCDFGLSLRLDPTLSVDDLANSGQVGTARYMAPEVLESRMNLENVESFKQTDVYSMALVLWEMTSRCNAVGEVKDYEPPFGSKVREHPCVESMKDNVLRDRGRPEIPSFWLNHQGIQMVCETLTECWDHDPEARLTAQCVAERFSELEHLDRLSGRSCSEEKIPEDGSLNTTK

T40 sequence (Q8WXR4 whole entry): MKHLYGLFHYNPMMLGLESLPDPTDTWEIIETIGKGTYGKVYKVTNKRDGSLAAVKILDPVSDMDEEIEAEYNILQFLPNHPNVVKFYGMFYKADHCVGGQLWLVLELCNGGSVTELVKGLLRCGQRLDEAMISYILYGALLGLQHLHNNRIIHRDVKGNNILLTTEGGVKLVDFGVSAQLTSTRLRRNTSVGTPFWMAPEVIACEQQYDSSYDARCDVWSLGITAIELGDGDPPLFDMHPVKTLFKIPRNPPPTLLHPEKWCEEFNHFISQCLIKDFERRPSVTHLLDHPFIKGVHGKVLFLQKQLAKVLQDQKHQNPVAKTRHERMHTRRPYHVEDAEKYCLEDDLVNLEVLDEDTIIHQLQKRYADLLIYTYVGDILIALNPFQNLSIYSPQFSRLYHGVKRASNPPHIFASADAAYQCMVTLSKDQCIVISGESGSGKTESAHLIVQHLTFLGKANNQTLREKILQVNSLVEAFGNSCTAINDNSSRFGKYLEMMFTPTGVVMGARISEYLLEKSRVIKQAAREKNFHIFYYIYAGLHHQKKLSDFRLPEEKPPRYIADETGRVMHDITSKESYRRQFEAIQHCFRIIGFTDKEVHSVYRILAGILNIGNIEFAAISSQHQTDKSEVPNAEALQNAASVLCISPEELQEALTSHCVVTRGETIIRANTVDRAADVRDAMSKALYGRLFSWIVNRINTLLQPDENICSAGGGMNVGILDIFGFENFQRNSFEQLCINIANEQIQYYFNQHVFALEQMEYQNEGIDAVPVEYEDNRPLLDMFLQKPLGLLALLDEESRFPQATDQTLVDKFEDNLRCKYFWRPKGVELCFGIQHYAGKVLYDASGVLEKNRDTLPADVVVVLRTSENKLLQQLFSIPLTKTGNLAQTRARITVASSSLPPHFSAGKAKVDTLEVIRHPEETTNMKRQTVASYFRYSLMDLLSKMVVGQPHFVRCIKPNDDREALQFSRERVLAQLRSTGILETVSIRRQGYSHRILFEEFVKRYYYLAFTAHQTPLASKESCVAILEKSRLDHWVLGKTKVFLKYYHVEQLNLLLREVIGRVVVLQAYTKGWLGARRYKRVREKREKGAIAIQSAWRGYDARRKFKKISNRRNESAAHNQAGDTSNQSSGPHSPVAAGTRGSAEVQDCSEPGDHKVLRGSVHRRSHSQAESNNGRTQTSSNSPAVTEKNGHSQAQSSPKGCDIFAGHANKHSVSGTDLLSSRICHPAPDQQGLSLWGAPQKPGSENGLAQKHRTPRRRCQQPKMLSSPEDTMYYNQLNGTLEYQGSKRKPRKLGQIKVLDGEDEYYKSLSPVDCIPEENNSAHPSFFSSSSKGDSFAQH
T42 sequence (P51813 whole entry): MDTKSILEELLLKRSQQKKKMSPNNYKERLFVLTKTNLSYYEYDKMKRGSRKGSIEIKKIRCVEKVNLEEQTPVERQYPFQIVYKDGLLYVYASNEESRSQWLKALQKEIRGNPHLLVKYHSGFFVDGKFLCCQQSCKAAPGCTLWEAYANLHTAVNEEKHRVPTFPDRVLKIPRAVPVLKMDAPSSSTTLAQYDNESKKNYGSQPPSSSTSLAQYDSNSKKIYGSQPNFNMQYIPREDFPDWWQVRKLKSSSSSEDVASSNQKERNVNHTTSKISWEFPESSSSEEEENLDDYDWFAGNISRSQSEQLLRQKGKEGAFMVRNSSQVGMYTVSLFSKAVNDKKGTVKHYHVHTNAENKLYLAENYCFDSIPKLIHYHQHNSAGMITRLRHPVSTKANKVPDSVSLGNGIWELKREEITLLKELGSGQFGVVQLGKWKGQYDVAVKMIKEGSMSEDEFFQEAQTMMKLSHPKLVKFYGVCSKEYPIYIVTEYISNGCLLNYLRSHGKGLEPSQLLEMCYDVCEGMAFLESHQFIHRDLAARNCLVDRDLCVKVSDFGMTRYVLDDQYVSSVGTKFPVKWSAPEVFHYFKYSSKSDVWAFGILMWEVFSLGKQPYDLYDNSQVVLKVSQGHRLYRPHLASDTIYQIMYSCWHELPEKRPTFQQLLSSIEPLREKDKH
T6 sequence (Q9HBH9 whole entry): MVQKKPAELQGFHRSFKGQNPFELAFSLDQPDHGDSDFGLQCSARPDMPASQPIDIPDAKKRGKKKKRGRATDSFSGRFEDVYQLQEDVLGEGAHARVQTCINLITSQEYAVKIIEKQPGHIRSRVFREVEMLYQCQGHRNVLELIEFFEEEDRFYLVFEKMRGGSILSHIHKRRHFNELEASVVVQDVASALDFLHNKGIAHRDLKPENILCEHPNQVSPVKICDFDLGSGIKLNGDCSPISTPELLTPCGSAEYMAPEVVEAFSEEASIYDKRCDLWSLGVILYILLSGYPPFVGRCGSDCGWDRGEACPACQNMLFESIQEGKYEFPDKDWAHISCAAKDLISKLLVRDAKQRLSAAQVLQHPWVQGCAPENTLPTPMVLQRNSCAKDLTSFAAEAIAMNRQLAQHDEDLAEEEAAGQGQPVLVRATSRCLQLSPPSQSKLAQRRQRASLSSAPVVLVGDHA
T18 sequence (Q9UIK4 whole entry): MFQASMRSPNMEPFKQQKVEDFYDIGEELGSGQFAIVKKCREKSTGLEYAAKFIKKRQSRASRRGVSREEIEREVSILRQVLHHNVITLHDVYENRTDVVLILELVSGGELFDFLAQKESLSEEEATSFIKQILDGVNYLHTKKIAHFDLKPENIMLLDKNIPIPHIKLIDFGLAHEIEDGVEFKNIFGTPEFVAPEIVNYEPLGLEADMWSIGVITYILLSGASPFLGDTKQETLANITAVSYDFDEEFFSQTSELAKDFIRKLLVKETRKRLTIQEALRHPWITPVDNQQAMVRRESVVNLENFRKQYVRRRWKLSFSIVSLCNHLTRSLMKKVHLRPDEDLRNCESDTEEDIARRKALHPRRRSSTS
T24 sequence (Q9UK32 1-400 limits assumed): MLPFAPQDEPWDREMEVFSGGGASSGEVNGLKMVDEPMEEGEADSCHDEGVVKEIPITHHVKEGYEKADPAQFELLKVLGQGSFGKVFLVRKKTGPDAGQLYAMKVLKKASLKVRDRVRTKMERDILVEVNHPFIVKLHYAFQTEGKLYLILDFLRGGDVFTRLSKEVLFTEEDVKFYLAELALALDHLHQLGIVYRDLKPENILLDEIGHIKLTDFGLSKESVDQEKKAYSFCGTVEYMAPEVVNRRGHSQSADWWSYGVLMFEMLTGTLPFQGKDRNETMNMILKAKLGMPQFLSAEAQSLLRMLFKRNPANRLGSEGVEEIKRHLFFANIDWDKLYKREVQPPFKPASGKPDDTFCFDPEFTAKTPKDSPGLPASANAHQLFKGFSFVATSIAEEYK
T12 sequence (P50613 whole entry): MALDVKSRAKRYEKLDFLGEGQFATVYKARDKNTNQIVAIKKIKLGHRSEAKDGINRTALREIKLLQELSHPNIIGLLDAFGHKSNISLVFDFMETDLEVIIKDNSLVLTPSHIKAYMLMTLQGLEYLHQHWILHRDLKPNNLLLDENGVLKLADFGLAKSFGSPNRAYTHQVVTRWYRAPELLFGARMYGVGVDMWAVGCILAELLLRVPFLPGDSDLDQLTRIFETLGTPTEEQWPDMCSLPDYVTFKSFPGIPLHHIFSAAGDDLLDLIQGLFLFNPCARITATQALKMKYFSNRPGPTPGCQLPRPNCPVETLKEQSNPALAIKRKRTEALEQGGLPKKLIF
T27 sequence (Q9UKI8 whole entry): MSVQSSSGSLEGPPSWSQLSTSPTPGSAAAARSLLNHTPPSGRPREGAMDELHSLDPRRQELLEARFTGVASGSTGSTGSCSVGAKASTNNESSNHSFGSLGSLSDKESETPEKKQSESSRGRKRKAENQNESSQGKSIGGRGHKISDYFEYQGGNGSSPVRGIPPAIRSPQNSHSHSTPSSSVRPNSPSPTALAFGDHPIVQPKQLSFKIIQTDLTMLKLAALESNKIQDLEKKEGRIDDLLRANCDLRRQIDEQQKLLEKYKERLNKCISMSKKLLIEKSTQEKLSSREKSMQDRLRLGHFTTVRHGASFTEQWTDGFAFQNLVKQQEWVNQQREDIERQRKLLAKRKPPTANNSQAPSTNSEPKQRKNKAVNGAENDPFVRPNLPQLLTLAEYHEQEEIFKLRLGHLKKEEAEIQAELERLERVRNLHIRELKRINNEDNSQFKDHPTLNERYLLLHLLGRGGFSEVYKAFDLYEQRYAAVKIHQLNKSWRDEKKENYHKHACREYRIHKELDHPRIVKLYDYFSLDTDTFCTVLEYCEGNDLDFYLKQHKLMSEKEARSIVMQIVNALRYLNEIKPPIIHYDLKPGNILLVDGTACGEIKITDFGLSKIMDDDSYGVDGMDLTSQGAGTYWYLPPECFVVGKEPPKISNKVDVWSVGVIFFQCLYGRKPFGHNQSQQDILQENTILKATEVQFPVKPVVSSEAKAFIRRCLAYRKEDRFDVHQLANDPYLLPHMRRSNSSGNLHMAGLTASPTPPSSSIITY

Which remaining binding at 1 µM [1] does the source give for `CN1CCC(CNc2ccc3ncc(C(=O)Nc4cccc(OC(F)(F)F)c4)n3n2)CC1` [Cpd 2] here?
The remaining binding at 1 µM was 88%.

What about the remaining binding at 1 µM [2] of the same compound?
Its remaining binding at 1 µM is 100%.

What about the remaining binding at 1 µM [3] of the same compound?
Its remaining binding at 1 µM is 100%.

What about the remaining binding at 1 µM [4] of the same compound?
Its remaining binding at 1 µM is 100%.

What about the remaining binding at 1 µM [5] of the same compound?
The remaining binding at 1 µM was 100%.

What about the remaining binding at 1 µM [6] of the same compound?
The remaining binding at 1 µM was 96%.

And the remaining binding at 1 µM [7]?
The remaining binding at 1 µM was 72%.

And the remaining binding at 1 µM [8]?
The remaining binding at 1 µM was 88%.

And the remaining binding at 1 µM [9]?
The remaining binding at 1 µM was 94%.

And the remaining binding at 1 µM [10]?
Its remaining binding at 1 µM is 100%.

And the remaining binding at 1 µM [11]?
Its remaining binding at 1 µM is 100%.

And the remaining binding at 1 µM [12]?
The remaining binding at 1 µM was 70%.

What about the remaining binding at 1 µM [13] of the same compound?
Its remaining binding at 1 µM is 91%.

And the remaining binding at 1 µM [14]?
Its remaining binding at 1 µM is 93%.

What about the remaining binding at 1 µM [15] of the same compound?
Its remaining binding at 1 µM is 78%.

What about the remaining binding at 1 µM [16] of the same compound?
Its remaining binding at 1 µM is 100%.

And the remaining binding at 1 µM [17]?
The remaining binding at 1 µM was 98%.

And the remaining binding at 1 µM [18]?
Its remaining binding at 1 µM is 89%.

And the remaining binding at 1 µM [19]?
Its remaining binding at 1 µM is 99%.

And the remaining binding at 1 µM [20]?
Its remaining binding at 1 µM is 58%.

And the remaining binding at 1 µM [21]?
Its remaining binding at 1 µM is 96%.

And the remaining binding at 1 µM [22]?
Its remaining binding at 1 µM is 85%.

What about the remaining binding at 1 µM [23] of the same compound?
The remaining binding at 1 µM was 100%.

What about the remaining binding at 1 µM [24] of the same compound?
The remaining binding at 1 µM was 92%.

What about the remaining binding at 1 µM [25] of the same compound?
Its remaining binding at 1 µM is 100%.

What about the remaining binding at 1 µM [26] of the same compound?
Its remaining binding at 1 µM is 56%.

And the remaining binding at 1 µM [27]?
Its remaining binding at 1 µM is 98%.

And the remaining binding at 1 µM [28]?
The remaining binding at 1 µM was 99%.

What about the remaining binding at 1 µM [29] of the same compound?
Its remaining binding at 1 µM is 100%.

What about the remaining binding at 1 µM [30] of the same compound?
Its remaining binding at 1 µM is 100%.

What about the remaining binding at 1 µM [31] of the same compound?
Its remaining binding at 1 µM is 71%.

And the remaining binding at 1 µM [32]?
The remaining binding at 1 µM was 98%.

What about the remaining binding at 1 µM [33] of the same compound?
The remaining binding at 1 µM was 95%.

And the remaining binding at 1 µM [34]?
Its remaining binding at 1 µM is 100%.

And the remaining binding at 1 µM [35]?
Its remaining binding at 1 µM is 99%.

And the remaining binding at 1 µM [36]?
Its remaining binding at 1 µM is 96%.

And the remaining binding at 1 µM [37]?
Its remaining binding at 1 µM is 100%.

And the remaining binding at 1 µM [38]?
Its remaining binding at 1 µM is 89%.

And the remaining binding at 1 µM [39]?
The remaining binding at 1 µM was 95%.

What about the remaining binding at 1 µM [40] of the same compound?
Its remaining binding at 1 µM is 100%.

What about the remaining binding at 1 µM [41] of the same compound?
Its remaining binding at 1 µM is 100%.

What about the “% Ctrl” value [42] of the same compound?
The value was 100%.

And the remaining binding at 1 µM [43]?
The remaining binding at 1 µM was 100%.

What about the remaining binding at 1 µM [44] of the same compound?
Its remaining binding at 1 µM is 100%.

What about the remaining binding at 1 µM [45] of the same compound?
Its remaining binding at 1 µM is 100%.

From paper PMC7407272, “Induction of Lysosome Membrane Permeabilization as a Therapeutic Strategy to Target Pancreatic Cancer Stem Cells” (Cancers, 2020)
